Reference: patent publication EP4685128A1, “NOVEL 2-(1-HYDROXYPENTYL) BENZOIC ACID CYCLOALKYL AMINE SALT” (priority 2023, dated 2024)

Legend:
[1] = tested on: MCAO rats; assay: Cerebral infarct volume (TTC staining) in rat MCAO ischemia-reperfusion model; type: in vivo; conditions: for extent of cerebral infarction compared with the model group: 24 h, t-test versus model group, doses as in Table 2; for Percentage of cerebral infarction volume (%): 24 hours after MCAO ischemia, tail vein, single dose, n=10
[2] = tested on: MCAO rats; assay: Neurological deficit scoring (Longa method) in rat MCAO ischemia-reperfusion stroke model; conditions: for neurological symptoms of rats compared with the model group: 24 h postoperatively, t-test versus model group, doses as in Table 1; for Score 2h: neurological deficit score 2 h after ischemia (administration started at reperfusion after 2 h); for Score 2h / Score 24h: tail vein, single dose, n=10; for Score 24h: neurological deficit score 24 h post-surgery
Procedure: Administration was initiated upon reperfusion after 2 hours of ischemia. The model and the sham operation group were given an equal volume 5% glucose injection solution via tail vein injection, while the other groups were injected with the corresponding drugs via tail vein, each with a single dose. […] Performing modeling surgery: The rat MCAO model was established with reference to the Longa intraluminal filament occlusion method. Nylon monofilament was cut into 2 cm lengths, the tip was dipped into a tiny amount of molten paraffin, after cooling, the ends of the nylon threads were completely wrapped for later use. The rats were completely anesthetized with 3% sodium pentobarbital (30 mg/kg), and placed supine, and secured on a surgical board. The cervical skin was prepared and disinfected, a 2-cm mid line incision was made. The left common carotid artery was bluntly isolated, and the external and internal carotid arteries were dissected free along the common carotid artery. The distal ends of the common carotid artery and the external carotid artery were ligated, and the internal carotid artery was occluded using hemostatic forceps. A small arteriotomy was made in the common carotid artery and the prepared nylon monofilament was inserted through the opening. The wax-coated tip was inserted into the common carotid artery and advanced into the internal carotid artery, the hemostat was released, and the advancement of the wax tip was stopped when it was 13-16 mm from the opening. The filament was secured, and the cervical incision was closed. After 2 h of occlusion, rats were anesthetized and the filament was withdrawn. In the sham operation group, rats were completely anesthetized with only 3% sodium pentobarbital. After cervical skin preparation and incision, the common carotid artery was bluntly isolated, and the wound immediately closed, without filament insertion. […] Neurological deficit scoring: scoring time: before modeling, 2 h after ischemia, and 24 h post-surgery, all surviving animals were scored in a blinded manner using a modified neurological deficit score. The scoring criteria of Longa's method were as follows: 0: normal neurological function; 1: mild neurological deficit: when suspended by the tail, the animal's left forelimb was flexed; 2: moderate neurological deficit: when placed on a smooth surface, the animal circles to the left side while walking; 3: moderate neurological deficit: at rest, the animal leans to the left side; 4: depressed consciousness with no spontaneous limb movements; 5: unresponsive to stimuli or death. […] Result analysis: The t-test was used to compare the behavioral test scores between groups.

[3] = tested on: platelet aggregation in rats; assay: ADP-induced platelet aggregation in platelet-rich plasma of rats after oral gavage; type: in vivo; conditions: for Maximum platelet aggregation rate (%): blood taken 3 hours after gavage, 20µM ADP, platelet-rich plasma, n=10; for platelet aggregation rate compared with the solvent control group: significance versus solvent control group, doses as in Table 3
Procedure: After oral gavage administration for 3 hours on the same day, blood was collected from the abdominal aorta to obtain platelet-rich plasma from each group. Platelet aggregation was induced by 20µM ADP, and the maximum platelet aggregation rate in platelet-rich plasma was determined by platelet aggregometer, to evaluate and compare the effects of platelet aggregation in rats.

[4] = tested on: SD rats; assay: Repeated administration toxicity test in rats (14 days, tail vein); conditions: once daily for 14 consecutive days, n=10
[5] = Stability test (influence factor test, Chinese Pharmacopoeia 2020 General Chapter 9001); conditions: for Decomposition product butylphthalide %: HPLC; for appearance / main peak and butylphthalide content: 30 days under open high-temperature and light exposure
Procedure: An appropriate amount of each compound to be tested was taken, and the influence factor test was conducted according to the General Chapter 9001 of Part 4 of the 2020 Edition of the Chinese Pharmacopoeia. The appearance of the compounds and the content of the main degradation product, butylphthalide, were detected respectively on day 0 and day 30 for each compound. The detection of butylphthalide was performed using high performance liquid chromatography, with a column packed with octadecylsilane-bonded silica gel, and a mobile phase of methanol-water (65:35).

[6] = Solubility test (Chinese Pharmacopoeia 2020 method); type: physicochemical
[7] = as stated for CN1523003A, background art; cited from earlier work
[8] = as stated for CN1523003A, background art; cited from earlier work; remark: listed apart in the source

## NC12CC3CC(CC(C3)C1)C2 [Amantadine, amantadine, reference compound]
[1]
  extent of cerebral infarction compared with the model group: no significant inhibitory effect
[1]; 0.016 mmol/kg
  Percentage of cerebral infarction volume (%): 35.1±4.56%
[2]
  neurological symptoms of rats compared with the model group: no significant improvement
[2]; group dose 0.016 mmol/kg
  Score 2h: 2.5±1.08
[2]; 0.016 mmol/kg
  Score 24h: 3.00±0.82

## CC(=O)Oc1ccccc1C(=O)O [Aspirin, reference compound]
[3]; ig 100 mg/kg
  Maximum platelet aggregation rate (%): 27.00±6.48 %
[3]
  platelet aggregation rate compared with the solvent control group: highly significantly different

## CCCCC1OC(=O)c2ccccc21 (stereo not shown) [Butylphthalide, reference compound]
[1]
  extent of cerebral infarction compared with the model group: significantly reduced
[1]; 0.053 mmol/kg
  Percentage of cerebral infarction volume (%): 31.0±7.50 %
[2]
  neurological symptoms of rats compared with the model group: significantly improved
[2]; group dose 0.053 mmol/kg
  Score 2h: 2.8±1.03
[2]; 0.053 mmol/kg
  Score 24h: 2.10±0.99
[3]; ig 200 mg/kg
  Maximum platelet aggregation rate (%): 57.50±9.05 %
[3]
  platelet aggregation rate compared with the solvent control group: significantly different

## CCCCC(O)c1ccccc1C(=O)O.NC12CC3CC(CC(C3)C1)C2 (stereo not shown) [Compound 1, amantadine 2-(1-hydroxypentyl)benzoate salt]
[1]
  extent of cerebral infarction compared with the model group: significantly reduced
[1]; 0.016 mmol/kg
  Percentage of cerebral infarction volume (%): 25.7±5.29 %
[4]; high dose 105 mg/kg
  Mortality rate (%): 0%
[4]; low dose 15 mg/kg
  Mortality rate (%): 0%
[4]; medium dose 45 mg/kg
  Mortality rate (%): 0%
[2]
  neurological symptoms of rats compared with the model group: highly significant
[2]; group dose 0.016 mmol/kg
  Score 2h: 2.8±1.14
[2]; 0.016 mmol/kg
  Score 24h: 1.60±0.84
[5]; 0 day
  Property: White powder
  Decomposition product butylphthalide %: 0.114%
[5]
  appearance: remains unchanged
  main peak and butylphthalide content: minimal variation
[5]; high humidity RH92.5%, 30 days
  Property: White powder
  Decomposition product butylphthalide %: 0.298%
[3]; ig 200 mg/kg
  Maximum platelet aggregation rate (%): 34.60±9.57 %

## CC1C2CC3CC(C2)CC1(N)C3.CCCCC(O)c1ccccc1C(=O)O (stereo not shown) [Compound 3, 2-methyladamantan-1-amine 2-(1-hydroxypentyl)benzoate salt]
[3]; ig 200 mg/kg
  Maximum platelet aggregation rate (%): 37.50±9.42 %

## CC12CC3CC(C)(C1)CC(N)(C3)C2.CCCCC(O)c1ccccc1C(=O)O (stereo not shown) [Compound 4, 3,5-dimethyladamantane-1-amine 2-(1-hydroxypentyl)benzoate salt]
[1]
  extent of cerebral infarction compared with the model group: significantly reduced
[1]; 0.016 mmol/kg
  Percentage of cerebral infarction volume (%): 25.1±4.41 %
[6]; medium Water, about 0.01 g sample in 9.0 ml
  Solubility: Completely soluble
[6]; medium pH4.5, about 0.01 g sample in 9.0 ml
  Solubility: Completely soluble
[6]; medium pH6.8, about 0.01 g sample in 9.0 ml
  Solubility: Completely soluble
[4]; high dose 105 mg/kg
  Mortality rate (%): 0%
[4]; low dose 15 mg/kg
  Mortality rate (%): 0%
[4]; medium dose 45 mg/kg
  Mortality rate (%): 0%
[2]
  neurological symptoms of rats compared with the model group: highly significant
[2]; group dose 0.016 mmol/kg
  Score 2h: 2.7±1.16
[2]; 0.016 mmol/kg
  Score 24h: 1.50±0.53
[5]; 0 day
  Property: White powder
  Decomposition product butylphthalide %: 0.107%
[5]
  appearance: remains unchanged
  main peak and butylphthalide content: minimal variation
[5]; high humidity RH92.5%, 30 days
  Property: White powder
  Decomposition product butylphthalide %: 0.258%
[3]; ig 200 mg/kg
  Maximum platelet aggregation rate (%): 38.10±6.24 %

## CCCC12CC3CC(CC(N)(C3)C1)C2.CCCCC(O)c1ccccc1C(=O)O (stereo not shown) [Compound 6, 3-n-propyladamantane-1-amine 2-(1-hydroxypentyl)benzoate salt]
[3]; ig 200 mg/kg
  Maximum platelet aggregation rate (%): 40.30±12.26 %

## CCCCC(O)c1ccccc1C(=O)O.NC12CC3CC(C1)C(F)C(C3)C2 (stereo not shown) [Compound 7, 4-fluoroadamantane-1-amine 2-(1-hydroxypentyl)benzoate salt]
[3]; ig 200 mg/kg
  Maximum platelet aggregation rate (%): 37.90±12.60 %

## CCCCC(O)c1ccccc1C(=O)O.N[C@@H]1[C@@H]2C[C@@H]3C[C@H]1C[C@@](O)(C3)C2 (stereo not drawn) [Compound 10, trans-1-hydroxyadamantan-4-amine 2-(1-hydroxypentyl)benzoate salt]
[1]
  extent of cerebral infarction compared with the model group: significantly reduced
[1]; 0.016 mmol/kg
  Percentage of cerebral infarction volume (%): 25.8±4.52 %
[2]
  neurological symptoms of rats compared with the model group: highly significant
[2]; group dose 0.016 mmol/kg
  Score 2h: 2.9±1.52
[2]; 0.016 mmol/kg
  Score 24h: 1.61±1.07
[3]; ig 200 mg/kg
  Maximum platelet aggregation rate (%): 38.20±12.25 %

## CCCCC(O)c1ccccc1C(=O)O.NC1CCC(O)CC1 (stereo not shown) [Compound 13, 4-hydroxycyclohexan-1-amine 2-(1-hydroxypentyl)benzoate salt]
[3]; ig 200 mg/kg
  Maximum platelet aggregation rate (%): 42.10±5.99 %

## CC1CC1N.CCCCC(O)c1ccccc1C(=O)O (stereo not shown) [Compound 15, 2-methylcyclopropane-1-amine 2-(1-hydroxypentyl)benzoate salt]
[3]; ig 200 mg/kg
  Maximum platelet aggregation rate (%): 41.10±6.45 %

## CC(C)NC(C)C.CCCCC(O)c1ccccc1C(=O)O (stereo not shown) [Diisopropylamine salt, 2-(1-hydroxypentyl)benzoic acid diisopropylamine salt, reference compound]
[5]; 0 day
  Property: White powder
  Decomposition product butylphthalide %: 0.087%
[5]; high humidity RH92.5%, 30 days
  Property: White powder
  Decomposition product butylphthalide %: 8.025%

## CCCCC(O)c1ccccc1C(=O)O.c1ccc(CNCCNCc2ccccc2)cc1 [N'N-dibenzylethylenediamine salt, reference compound]
[7]
  toxicity: lower toxicity
[3]; ig 200 mg/kg
  Maximum platelet aggregation rate (%): 46.6±10.78 %
[3]
  platelet aggregation rate compared with the solvent control group: highly significantly different

## CCCCC(O)c1ccccc1C(=O)[O-].[K+] (stereo not shown) [Potassium salt, 2-(1-hydroxypentyl)benzoic acid potassium salt, reference compound]
[1]
  extent of cerebral infarction compared with the model group: significantly reduced
[1]; 0.016 mmol/kg
  Percentage of cerebral infarction volume (%): 29.7±5.72 %
[8]
  hygroscopicity: highly hygroscopic
[2]
  neurological symptoms of rats compared with the model group: significantly improved
[2]; group dose 0.016 mmol/kg
  Score 2h: 2.9±0.99
[2]; 0.016 mmol/kg
  Score 24h: 1.90±0.74
[5]; 0 day
  Property: White powder
  Decomposition product butylphthalide %: 0.090%
[5]; high humidity RH92.5%, 30 days
  Property: Partially deliquescent and liquefied
  Decomposition product butylphthalide %: 25.687%
[7]
  toxicity: greater toxicity
[3]; ig 200 mg/kg
  Maximum platelet aggregation rate (%): 48.50±8.29 %
[3]
  platelet aggregation rate compared with the solvent control group: highly significantly different

## CC(C)(C)N.CCCCC(O)c1ccccc1C(=O)O (stereo not shown) [Tert-butylamine salt, 2-(1-hydroxypentyl)benzoic acid tert-butylamine salt, reference compound]
[5]; 0 day
  Property: White powder
  Decomposition product butylphthalide %: 0.041%
[5]; high humidity RH92.5%, 30 days
  Property: White powder
  Decomposition product butylphthalide %: 10.214%
[7]
  toxicity: highly toxic

## CCCCC(O)c1ccccc1C(=O)O.NCc1ccccc1 (stereo not shown) [benzylamine salt]
[7]
  toxicity: highly toxic

## Bicyclo[2,2,1]heptane-2-amine 2-(1-hydroxypentyl)benzoate salt [Compound 16]
[3]; ig 200 mg/kg
  Maximum platelet aggregation rate (%): 44.10±5.15 %
